Experimental data published in patent US20230399374A1, “Compounds, Compositions and Methods of Use to Treat Bone Fractures” (PURDUE RESEARCH FOUNDATION, priority 2020, published 2023).
Non-standard residues stand in square brackets, D forms with d. No end group written: not given here. Aib = CC(C)(N)C(=O)O

What was measured:
midshaft femur fracture = assay: Pain/function outcomes, locomotor open-field testing after midshaft femur fracture; format: in vivo, mice; conditions: for pain/function outcomes, well-being in the open field: 5 weeks post-fracture, measured once a week
Method: Pain/function outcomes in mice were accessed by turning to behavioral testing. Allodynia was evaluated using Von Frey probes, whereas gain was evaluated using DigiGait, functionality was evaluated using running wheels, and anxiety coupled with functionality was evaluated using locomotor open-field testing. Open-field locomotor testing afforded the most consistent measurements.
Mice were habituated to the behavior room for 30-60 minutes before testing locomotor activity. Animals were habituated once for 10 minutes to the locomotor boxes prior to the start of the experiment. They were then placed individually in a locomotor box with infrared light tracking beams for 10 minutes before being removed and placed back in their home cage. The mice were tracked via EthoVision using 3-point directionality testing. Mice were measured for two weeks prior to the experiment. They then underwent the midshaft femur fracture model and were assigned to one of three treatment groups: 1) abaloparatide DE20 twice a week; 2) phosphate buffered saline twice a week; or 3) ibuprofen (0.6 g/L) in their water. The mice were treated for 5 weeks post-fracture and measured once a week.
For FIGS. 26-28, day 0 represents the baseline data pre-fracture. Saline and SEQ ID NO: 4 (1 nmol) were injected twice/week. Ibuprofen was administered constantly in the mice's water at a concentration of 0.6 g/L.

[1] = test system: midshaft femoral fractures; assay: Midshaft femur fracture healing in otherwise healthy mice (micro-CT, bend to failure); format: in vivo; conditions: for bone deposition in CT images: three weeks after initiation of treatment, FIG. 35
Text: In some instances, elevated accumulation of SEQ ID NO: 4 at the fracture site improves fracture healing (e.g., FIGS. 26-30). In some instances, femur fracture healing times following administration of a starting dose calculated by allometric scaling of the human dose prescribed for abaloparatide (SEQ ID NO: 2) treatment of osteoporosis are compared.
Bone morphometric analyses confirmed a 1.5-fold increase in the ratio of mineralized volume (bone volume; BV) to total bone volume (total volume; TV) in the SEQ ID NO: 4-treated mice.
In some instances, such as, to establish whether the observed increase in bone deposition translates into an improvement in mechanical properties, the force required to bend the healed femurs until they fractured again was measured.
In some instances, the force to fracture in the SEQ ID NO: 4-treated mice exceeded that required to fracture the contralateral healthy femurs in the same mice or similar, unmodified femurs in saline-treated mice.
The length of the targeting oligopeptide was increased to determine if it increased the drug's affinity for broken bone sufficiently that retention of the anabolic payload at the fracture site would be prolonged and less frequent dosing may be required. Mice were doses once every three days, rather than daily. […] The results are shown in FIG. 34, which is a graph of treatment (saline, SEQ ID NO: 3 (0.1 nmol/mg (0.1×), 1 nmol/mg (1×), and 10 nmol/mg (10×), and SEQ ID NO: 4 (0.1 nmol/mg (0.1×), 1 nmol/mg (1×), and 10 nmol/mg (10×)) vs. max load (N) of mice with midshaft femoral factures.

[2] = set-up: species or system mice; conditions: mouse, in vivo, sc
Text: (§1) SEQ ID NO: 4 was subcutaneously injected into fracture-bearing mice. […] The results are shown in FIG. 30, which is a graph of hours vs. percent injected dose in blood (cpm/g) of mice with midshaft femoral factures. […] The results are shown in FIG. 31, which is a graph of hours vs. percent injected dose in bone (cpm/g) of mice with midshaft femoral factures.

[3] = test system: fracture site (fractured femur); set-up: species or system mice; conditions: mouse, in vivo; for cumulative residence time (AUC) at the fracture site / half-life at the fracture site: sc
Text: as §1

[4] = test system: type I diabetic femur fracture; format: in vivo; conditions: for callus mineralization (BV) and bone density (BV/TV): four weeks of treatment, micro-CT, FIG. 13 and 14; for strength of the fractures (max load, work to fracture): four weeks, 4-point bend, FIG. 15 and 16
Method: (§2) Targeted conjugates of SEQ ID NO: 5, abaloparatide (SEQ ID NO: 2), SEQ ID NO: 6, and SEQ ID NO: 9 (a conjugate with 10 aspartic acid residues) were synthesized using Fmoc solid-phase peptide synthesis. From SEQ ID NO: 5, amino acids 1-34 were used, and abaloparatide (SEQ ID NO: 2) is a stabilized version of amino acids 1-36 of SEQ ID NO: 1. Diabetes was induced in 40 8-week-old male CD-1 mice via seven subcutaneous injections of streptozotocin (STZ) until blood sugar readings were above 250 mg/dL. The mice were left in this confirmed diabetic state for 2 months to allow the diabetes to take effect on the bones. Then, aseptic surgical techniques were used to place a 23-gauge needle as an intramedullary nail in the femur of the anesthetized mice for internal fixation before fracture was induced with a drop-weight fracture device from RISystem and confirmed by x-ray. The mice received buprenorphine for three days post-fracture. They were dosed subcutaneously with a positive control of insulin, a negative control of vehicle, SEQ ID NO: 5, or abaloparatide (SEQ ID NO: 2) each day for 4 weeks. Fracture healing was assessed qualitatively using micro-CT (Scanco Medical Ag). Fractured femurs were tested for strength in a 4-point-bend-to-failure using an ElectroForce TestBench (TA Instruments, New Castle, DE). Maximum load, stiffness, displacement post-yield, and work-to-fracture data were generated. Statistical analysis was performed using a one-way analysis of variance (ANOVA) with significance reported with p values less than 0.05 (*) and 0.01 (**).
Four compounds were tested. […] Abaloparatide (SEQ ID NO: 2) is a stabilized version of parathyroid-related protein hormone. Dasatinib is an […] with off-target effects on both osteoblasts and osteoclasts that improve overall bone density. Dasatinib has also proven to be a senolytic. ITGA is a fibronectin mimetic that promotes intramembranous bone fracture healing. […] Therefore, it was hypothesized that the glucose regulating properties of full-length SEQ ID NO: 5 may be beneficial in healing type I diabetic fractures as a dual-action compound that may improve healing via two mechanisms. The compounds were compared against insulin as a positive control and saline as a negative control.
BV represents the bone volume of the 100 thickest micro-CT slices of the fracture callus and is a measure of how much bone has mineralized at the site of fracture repair. BV/TV represents the BV divided by TV of the 100 thickest micro-CT slides of the fracture callus and is a measure of how dense the bone is at the site of fracture repair. Insulin was dosed as 2 IU/day. Doses of 0.1×, 50×, and 10×, are […], and 10 nmol, respectively, of the conjugate delivered daily by subcutaneous injection. SEQ ID NO: 6 was dosed at 10 μmol/kg every other day.
Insulin was dosed at 2 IU/day. Doses of 0.1×, 50×, and 10×, are 0.1 nmol, 50 nmol, and […], of the conjugate delivered daily by subcutaneous injection. SEQ ID NO: 6 was dosed at 10 μmol/kg every other day.

[5] = test system: type I diabetic femur fracture; assay: Fracture repair model, type I diabetes, compounds dosed in conjunction with insulin; format: in vivo, mice; conditions: with insulin 2 IU/day; for strength (maximum force, work to fracture, modulus): significance relative to insulin-treated group, FIG. 22A-C
Method: as §2
However, since […] patients will not stop taking their insulin to take a compound provided herein, the experiment was repeated with compounds dosed in conjunction with insulin (FIGS. 20-22). […]
For FIGS. 22A-22C, insulin was dosed at 2 IU/day in all groups, except for saline. […] All significance levels were calculated relative to the insulin-treated group, not the saline control group. […]

[6] = dosed once every three days, FIG. 34

For `CC(C)Cc1ccc(C(C)C(=O)O)cc1` (stereo not drawn) [ibuprofen, reference compound], the “pain/function outcomes, well-being in the open field” value (midshaft femur fracture) was “did not improve their pain/function outcomes”.

With “AVSEHQLLHDKGKSIQDLRRRELLEKLLxKLHTAEIRATSEVSPNSeeeeeeeeeeeeeeeeeeee [SEQ ID NO: 4]” the “distance traveled in 10 minutes” value (midshaft femur fracture; 1 nmol twice/week, FIG. 26) was “began to run farther”, the “time spent moving in 10 minutes” value (midshaft femur fracture; 1 nmol twice/week, FIG. 27) was “began to run for longer periods of time” and the “mean velocity in 10 minutes” value (midshaft femur fracture; 1 nmol twice/week, FIG. 28) was “began to run faster”. The “pain/function outcomes, well-being in the open field” value (midshaft femur fracture) was “more functionality and better well-being”, the “maximum load relative to free abaloparatide-treated femurs” value ([1]; FIG. 32) was 2.5 fold and the “work to fracture relative to abaloparatide-treated femurs” value ([1]; FIG. 33) was 3.5 fold. The “max load compared to saline (significance)” value [1, 6] was “significantly higher”, the “maximum load before breakage, abalode 20 versus abalode 10, greater strength” value ([1]; dosed once every three days, trend, FIG. 34) was 20-30% and the “relative effectiveness at improving bone healing” value ([1]; mouse, in vivo) was “more effective (e.g., at improving bone healing) than SEQ ID NO: 3”. For the same compound, the “time at which bones return to their previous unbroken strength” value ([1]; mouse, in vivo) was “between two and three weeks post-fracture”, the “bone deposition in CT images” value [1] was “distributed (e.g., more) evenly across the fractured area” and the “morphometric basis of the increase in bone density” value ([1]; three weeks of therapy) was “primarily due to a reduction in trabecular spacing, rather than an increase in trabecular thickness”. For the same compound, the “increase in the ratio of bone volume to total volume (BV/TV)” value ([1]; three weeks of therapy, compared with abaloparatide-treated mice) was 1.5 fold, the “strength of repaired femurs above original unbroken femurs” value ([1]; versus contralateral healthy femurs) was 30% and the circulation half-life [2] was 3.7 h. The “cumulative systemic exposure (AUC)” value [2] was 20 h, the “cumulative residence time (AUC) at the fracture site relative to abaloparatide” value [3] was 11 fold and the “residence time in the contralateral femur, fold lower than in the fractured femur” value [3] was 8 fold. For the same compound, the “cumulative residence time (AUC) at the fracture site” value [3] was 96 h and the “half-life at the fracture site” value [3] was 67 h.

With “SEQ ID NO: 3: SEQ ID NO: 15 (AVSEHQLLHDKGKSIQDLRRRELLEKLLxKLHTAEIRATSEVSPNS) followed by eeeeeeeeee, e = D-glutamic acid (AVSEHQLLHDKGKSIQDLRRRELLEKLL[Aib]KLHTAEIRATSEVSPNS[dE][dE][dE][dE][dE][dE][dE][dE][dE][dE])” the “max load compared to saline (significance)” value [1, 6] was “lacked significance when dosed every three days”, the “healing in healthy femur fractures” value ([1]; mouse, in vivo) was “repeatedly accelerated healing in healthy femur fractures” and the “relative effectiveness at improving bone healing” value ([1]; mouse, in vivo) was “better than abaloparatide”.

In the case of “SEQ ID NO: 6: a targeted conjugate of dasatinib (e.g., D10-ester-dasatinib) ({ester‑dasatinib}-DDDDDDDDDD)”, the “callus mineralization (BV) and bone density (BV/TV)” value (“callus mineralization” for short) [4] is reported as “without improving the callus mineralization”, the “strength of the fractures (max load, work to fracture)” value [4] is reported as “improved strength” and the “change in body mass” value ([4]; mouse, in vivo) is reported as “lost weight”. The “toxicity (in words)” value ([4]; mouse, in vivo) was “exhibited some toxicity at higher doses” and the “healing in healthy femur fractures” value ([1]; mouse, in vivo) was “repeatedly accelerated healing in healthy femur fractures”.

For “SEQ ID NO: 7: ITGA (fibronectin mimetic cyclic peptide 101) conjugated with 10 glutamic acid residues (HEEEEEEEEEERRETAWA; also: cyclic, ring not given here)”, the “healing in healthy femur fractures” value ([1]; mouse, in vivo) was “repeatedly accelerated healing in healthy femur fractures”.

For “SEQ ID NO: 8: cyclic peptide 102, a conjugate with 10 glutamic acid residues (HEEEEEEEEEERRETAWA; also: cyclic, ring not given here)”, the “mineralization of the callus (bone volume)” value ([5]; four weeks, FIG. 20A) was “improved the mineralization of the callus better than insulin” and the “strength (maximum force, work to fracture, modulus)” value [5] was “significantly improved the strength compared to the insulin control”.

With “abaloparatide [SEQ ID NO: 2, reference compound]” the “callus mineralization” value [4] was “impacting density the most”, the “bone deposition in CT images” value [1] was “concentrated on the periphery of the fracture, with minimal density bridging the opposing calluses” and the “strength (maximum force, work to fracture, modulus)” value [5] was “significantly improved the strength compared to the insulin control”. For the same compound, the circulation half-life [2] was 4.2 h, the “cumulative systemic exposure (AUC)” value [2] was 24.4 h and the “cumulative residence time (AUC) at the fracture site” value [3] was 8 h. The “half-life at the fracture site” value [3] was 8.8 h.

With insulin [reference compound] the “callus mineralization” value [4] was “improvement in mineralization”, the “strength of the fractures (max load, work to fracture)” value [4] was “not able to restore the quality of the bone” and the blood sugar levels ([4]; four-week treatment period, FIG. 18) was “the only compound to improve blood sugar levels”.
